Data from patent US4181803A, “Propiophenone derivatives and preparation thereof” (Eisai Co., Ltd., priority 1973, dated 1980).

How the values were obtained:
[1] = tested on: motor function and maintenance of righting reflex; experiment: animal or person; type: in vivo, male d,d-strain mice; details: Mus musculus, po, 1 h, read-out: Motor Ataxia, ED50
Procedure: (§1) Male d,d-strain mice weighing 18 to 22 grs. were used for the experiments.
(§2) Groups of each 10 mice were treated orally and intraperitoneally with a wide range of doses of the above-mentioned compounds or saline.
The numerals given in the following Table 1 indicate ED50 values (in mg/kg) which were calculated 60 minutes after the oral administration of the compounds under test.

[2] = tested on: isolated smooth muscle preparations; experiment: Smooth muscle-relaxing activity on isolated smooth muscle preparations
Text: Additionally, anti-histamine, anti-acetylcholine, anti-serotonin and smooth muscle-relaxing activities of the compounds under test were examined on isolated smooth muscle preparations

mice = experiment: Acute toxicity (24-hour mortality); type: in vivo; details: oral, from Table 1
Procedure: as §1, §2
The mortality ensued during 24 hours after the oral administration was recorded to determine acute toxicity of the compound under test on the mice.

**Q.** For `CCc1ccc(C(=O)C(C)CN2CCCCC2)cc1.Cl` (stereo not shown) [Compound A, 4'-ethyl-2-methyl-3-piperidino-propiophenone hydrochloride], which ED50 [1] is on record?
**A.** 640 mg/kg

**Q.** What about the “smooth muscle-relaxant activity (in words)” value [2] of the same compound?
**A.** strong

**Q.** And the “acute toxicity compared with Compound under control (in words)” value (mice)?
**A.** slightly stronger

**Q.** How did the ED50 [1] turn out when `CCCc1ccc(C(=O)C(C)CN2CCCCC2)cc1.Cl` (stereo not shown) [Compound B, 4'-n-propyl-2-methyl-3-piperidino-propiophenone hydrochloride] was run?
**A.** 800 mg/kg

**Q.** What about the “smooth muscle-relaxant activity (in words)” value [2] of the same compound?
**A.** strong

**Q.** And the “acute toxicity compared with Compound under control (in words)” value (mice)?
**A.** almost equivalent

**Q.** Which ED50 [1] does the source give for `CC(CN1CCCCC1)C(=O)c1ccc(C(C)C)cc1.Cl` (stereo not shown) [Compound C, 4'-isopropyl-2-methyl-3-piperidino-propiophenone hydrochloride] here?
**A.** 84 mg/kg

**Q.** What about the “smooth muscle-relaxant activity (in words)” value [2] of the same compound?
**A.** strong

**Q.** Which results are given for `Cc1ccc(C(=O)C(C)CN2CCCCC2)cc1.Cl` (stereo not shown) [Compound for control, 2,4'-dimethyl-3-piperidino-propiophenone hydrochloride, reference compound]?
**A.** ED50 [1]: 800 mg/kg; smooth muscle-relaxant activity (in words) [2]: weak
